Values of other authors, collected in patent US20250041246A1, “METHODS AND COMPOSITIONS FOR TREATING VITILIGO” (THE REGENTS OF THE UNIVERSITY OF CALIFORNIA, priority 2021, published 2025).

Columns and labels:
[1] = tested on: hyperpigmentary disorders; settings: in hyperpigmentary disorders
[2] = tested on: existing melanosomes (in melanocytes); settings: due to its effect on existing melanosomes (in melanocytes)

Row | SMILES | effect on skin pigmentation [1] | effect on skin pigmentation [2]
1 | CN(C)C(=N)N=C(N)N [metformin] | lighten skin | 
2 | [H]/N=C(/N)N/C(=N/[H])NCCc1ccccc1 [phenformin] |  | skin darkening effect
